Data taken from patent US3966701A, “Fibrinogen peptide derivatives” (The Dow Chemical Company, priority 1973, dated 1976).
Where a SMILES comes first, the peptide text is derived from it. The star is where a group is joined. Boc = CC(C)(C)OC(=O)*; OBn = c1ccc(CO*)cc1

Experiments:
thrombin [1] = test: in vitro plasma recalcification time (PRT): calcium ions added to oxalated plasma, clotting time measured; format: biochemical, dog
Procedure: The plasma recalcification time (PRT) was also used in an in vitro test for measuring thrombin inhibition wherein exogenous calcium ions were added to oxalated plasma (the system makes its thrombin in situ), and measuring clotting time in the presence of the compounds.
0.2 ml. oxalated dog plasma
0.1 ml. Barbital buffer saline containing test compound
0.1 ml. oxalated dog plasma
0.2 ml. Barbital buffer saline containing test compound

thrombin [2] = test: in vitro thrombin time (TT): exogenous thrombin added to oxalated plasma, clotting time measured; format: biochemical; conditions: oxalated dog plasma, thrombin 1 unit/ml, control 15 sec
Procedure: Their anticoagulant activity was determined by measuring thrombin time (TT) utilizing an in vitro test wherein exogenous thrombin is added to oxalated plasma and clotting time is measured in the presence of the test compound.
^a Clotting mixture: 0.2 ml. oxalated dog plasma, 0.1 ml. barbital
buffer containing peptide and 0.1 ml. thrombin (1 unit/ml.)

[3] = 0.25 mg/ml, clotting mixture (a), 0.2 ml oxalated dog plasma, control 66 sec
[4] = 0.5 mg/ml, clotting mixture (a), 0.2 ml oxalated dog plasma, control 66 sec
[5] = 1.0 mg/ml, clotting mixture (a), 0.2 ml oxalated dog plasma, control 66 sec
[6] = 1.5 mg/ml, clotting mixture (a), 0.2 ml oxalated dog plasma, control 66 sec

| Molecule | PRT (average) (thrombin [1]; 0.25 mg/ml, clotting mixture (b), 0.1 ml oxalated dog plasma, control 115 sec) [s] | PRT (average) (thrombin [1]; 0.5 mg/ml, clotting mixture (b), 0.1 ml oxalated dog plasma, control 115 sec) [s] | PRT (average) (thrombin [1]; 1.0 mg/ml, clotting mixture (b), 0.1 ml oxalated dog plasma, control 115 sec) [s] | PRT (average) (thrombin [1]; 2 mg/ml, clotting mixture (b), 0.1 ml oxalated dog plasma, control 115 sec) [s] | PRT (average) (thrombin [1]; 0.25 mg/ml, clotting mixture (a), 0.2 ml oxalated dog plasma, control 55 sec) [s] | PRT (average) (thrombin [1]; 0.5 mg/ml, clotting mixture (a), 0.2 ml oxalated dog plasma, control 55 sec) [s] | PRT (average) (thrombin [1]; 1.0 mg/ml, clotting mixture (a), 0.2 ml oxalated dog plasma, control 55 sec) [s] | PRT (average) (thrombin [1]; 1.5 mg/ml, clotting mixture (a), 0.2 ml oxalated dog plasma, control 55 sec) [s] | PRT (average) (thrombin [1]; 2 mg/ml, clotting mixture (a), 0.2 ml oxalated dog plasma, control 55 sec) [s] | Thrombin Times (sec) at Peptide Concentrations (mg/ml) (thrombin [2]; 0.125 mg/ml peptide) [s] | Thrombin Times (sec) at Peptide Concentrations (mg/ml) (thrombin [2]; 0.25 mg/ml peptide) [s] | Thrombin Times (sec) at Peptide Concentrations (mg/ml) (thrombin [2]; 0.5 mg/ml peptide) [s] | Thrombin Times (sec) at Peptide Concentrations (mg/ml) (thrombin [2]; 1.0 mg/ml peptide) [s] | Thrombin Times (sec) at Peptide Concentrations (mg/ml) (thrombin [2]; 2.0 mg/ml peptide) [s] | PRT (average) (thrombin [1]; [3]) [s] | PRT (average) (thrombin [1]; [4]) [s] | PRT (average) (thrombin [1]; [5]) [s] | PRT (average) (thrombin [1]; [6]) [s] | PRT (average) (thrombin [1]; 2 mg/ml, clotting mixture (a), 0.2 ml oxalated dog plasma, control 66 sec) [s] |
| --- | --- | --- | --- | --- | --- | --- | --- | --- | --- | --- | --- | --- | --- | --- | --- | --- | --- | --- | --- |
| N-Benzyloxycarbonyl-L-prolyl-L-arginine Benzyl Ester p-Toluenesulfonate Methanolate [Example 5] | 240 | 270 | 345 | 435 |  |  |  |  |  |  |  |  |  |  |  |  |  |  |  |
| Glycyl-L-Prolyl-L-Arginine Benzyl Ester p-Toluenesulfonate Trifluoroacetate [Example 4] |  |  |  |  | 77 | 100 | 198 | 246 | 296 | 19 | 26 | 44 | 68 | 135 |  |  |  |  |  |
| CC(C)(C)OC(=O)NCC(=O)N1CCC[C@H]1C(=O)N[C@@H](CCCNC(=N)N)C(=O)OCc1ccccc1.Cc1ccc(S(=O)(=O)O)cc1 [Example 3, N-t-Butyloxycarbonylglycyl-L-prolyl-L-arginine Benzyl Ester p-Toluenesulfonate] (Boc-Gly-Pro-Arg-OBn) |  |  |  |  |  |  |  |  |  | 23 | 29 | 42 | 56 | 75 | 88 | 110 | 146 | 202 |  |
| L-Prolyl-L-arginine Benzyl Ester p-Toluenesulfonate Trifluoroacetate [Example 2] |  |  |  |  |  |  |  |  |  | 19 | 23 | 31 | 46 | 69 | 89 | 102 | 134 | 209 |  |
| CC(C)(C)OC(=O)N1CCC[C@H]1C(=O)N[C@@H](CCCNC(=N)N)C(=O)OCc1ccccc1.CO.Cc1ccc(S(=O)(=O)O)cc1 [Example 1, N-t-Butyloxycarbonyl-L-prolyl-L-arginine Benzyl Ester p-Toluenesulfonate Methanolate] (Boc-Pro-Arg-OBn) |  |  |  |  |  |  |  |  |  | 40 | 44 | 73 | 91 | 159 | 128 | 160 | 207 | 229 | 250 |
